System: GNAS^R201H iPSCs
Assay: cAMP in iPSCs stimulated with the β-adrenergic receptor agonist isoproterenol
Assay type: cell-based, human
Details: 10 μM isoproterenol, N=6 in two different iPSC lines
Description: FIGS. 3A-3C. […] Representative of n=3. (FIG. 3B) Representative western blot of pluripotent and differentiated (DDX) iPSCs showing increased pCREB and pATF1, consistent with activation of the cAMP pathway. […] N=6 in two different iPSC lines.
Initial screens with a single dose (50 μM) in our GNAS iPSCs identified several compounds with potential as molecular tools ([…].B). We found candidates that inhibited Gsα^R201H but not WT (#46, 47, 43, 2). […] While not desirable for treating FD/MAS or GNAS hyperactivation, these may be useful for treating diseases of GNAS loss of function (e.g., Albright's hereditary osteodystrophy).

With CC(C)NCC(O)c1ccc(O)c(O)c1 (stereo not shown) [isoproterenol] the “differences in cAMP from baseline” value was “increased differences in cAMP from baseline”.

— patent publication US20260266803A1, “Induced Pluripotent Stem Cell Model of Fibrous Dysplasia/Mccune-Albright Syndrome and Methods of Use” (The Regents of the University of California, priority 2023, published 2026)
